In patent publication US11208403B2, “Pyridone derivatives having tetrahydropyranylmethyl groups” (DAIICHI SANKYO COMPANY, LIMITED, priority 2014, dated 2021):
Counter-ions that a name gives are not always drawn. Like-named read-outs stand apart in the source and are kept apart here.

Key:
NIH-3T3-Axl #7 = assay: Antitumor test, NIH-3T3-Axl #7 tumors in NOG mice (Test Example 5); format: in vivo, mouse; settings: NIH-3T3-Axl #7 in female NOG mice, 5 continuous doses
Description: (Test Example 5: Antitumor Test)
NIH-3T3-Axl #7 (cells prepared by the transfection of NIH3T3 cells with pLXSN retrovirus having an insert of full-length Axl cDNA) was block-transplanted into female NOG mice.

HCC827 lung cancer cells [1] = assay: In vivo effect of combined use with erlotinib-2, erlotinib-resistant HCC827 tumors (Test Example 8); design: species or system mouse
HCC827 lung cancer cells [2] = assay: In vivo effect of combined use with erlotinib, HCC827 subcutaneous tumors (Test Example 6); settings: HCC827 in nude mice, 50 mg/kg bid in combination with 25 mg/kg erlotinib qd
[3] = target: T1, human MER (intracellular domain, amino acids 528-999, GST fusion) (Homo sapiens (Human), UniProt Q12866); assay: biochemical
[4] = target: T1, human MER (intracellular domain, amino acids 528-999, GST fusion); settings: read-out: Mer kinase IC50; cell-free, ATP concentration of 1 mM
[5] = Ophthalmic histopathological examination after long-term administration (Test Example 4); format: in vivo, mouse; settings: female NOG mice (n=8), 100 or 200 mg/kg
Description: Preparation of dosing Solution:
4. Administration Method:
Four continuous doses, 1 drug holiday, 5 continuous doses, 2 drug holidays, 5 continuous doses, 2 drug holidays, 5 continuous doses, 2 drug holidays, and 4 continuous doses.
5. Pathological Examination
On the day following the termination date of the administration period, the mice were euthanized by blood letting under isoflurane anesthesia. Then, their eyeballs were collected, fixed in Davidson's solutions, then embedded in paraffin, and stained with hematoxylin eosin to prepare preparations, which were then histopathologically examined.

T1 sequence (Q12866 528-999): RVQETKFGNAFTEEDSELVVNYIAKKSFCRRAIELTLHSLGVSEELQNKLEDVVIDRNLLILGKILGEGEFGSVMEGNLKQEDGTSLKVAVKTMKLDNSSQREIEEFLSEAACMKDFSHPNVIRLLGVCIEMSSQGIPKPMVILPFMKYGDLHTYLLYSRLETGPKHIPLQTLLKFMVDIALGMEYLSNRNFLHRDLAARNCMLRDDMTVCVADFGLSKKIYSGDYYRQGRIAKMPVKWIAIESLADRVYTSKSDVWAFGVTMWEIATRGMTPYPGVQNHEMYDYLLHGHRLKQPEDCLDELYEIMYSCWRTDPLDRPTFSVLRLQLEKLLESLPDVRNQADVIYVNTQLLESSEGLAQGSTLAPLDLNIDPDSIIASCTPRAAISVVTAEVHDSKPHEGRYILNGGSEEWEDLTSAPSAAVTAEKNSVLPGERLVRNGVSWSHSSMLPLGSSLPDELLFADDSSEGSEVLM

COc1ccc(-c2cnc(N)c(-c3ccc(NC(=O)c4cn(CC(F)(F)F)cc(-c5ccc(F)cc5)c4=O)cc3)c2)cc1OC [Compound A, reference compound]
antitumor effect (NIH-3T3-Axl #7; 4.2 mg/kg oral bid): distinct tumor regression effect | antitumor effect (NIH-3T3-Axl #7; 25 mg/kg oral bid): distinct tumor regression effect

COc1cc(-c2cnc(N)c(-c3ccc(NC(=O)c4cn(CC5CCOCC5)cc(-c5ccc(C)cn5)c4=O)cc3F)c2)ccc1OC[C@H]1COCCO1 [Compound B sulfate hydrate]
growth inhibition of erlotinib-resistant tumor (HCC827 lung cancer cells [1]; group 2: 50 mg/kg bid + 25 mg/kg erlotinib qd): distinct growth inhibitory effect of erlotinib was confirmed | estimated tumor volume of erlotinib-resistant tumor (HCC827 lung cancer cells [1]; group 2: 50 mg/kg bid + 25 mg/kg erlotinib qd, 116 to 140 days after transplantation): maintained even at 140 days after transplantation | growth inhibition of erlotinib-resistant tumor (HCC827 lung cancer cells [1]; group 3: 25 mg/kg bid + 25 mg/kg erlotinib qd): distinct growth inhibitory effect of erlotinib was confirmed | body weight change (HCC827 lung cancer cells [2]): No significant weight loss | tumor size relative to start of administration (estimated tumor volume) (HCC827 lung cancer cells [2]): did not reach that at the start of administration even at Day 107

COc1ccc(-c2cnc(N)c(-c3ccc(NC(=O)c4cn(CC5CCOCC5)cc(-c5ccc(C)cc5)c4=O)cc3)c2)cc1OC [Example 2]
IC50 [3]: 102 nM

COc1ccc(-c2cnc(N)c(-c3ccc(NC(=O)c4cn(CC5CCOCC5)cc(-c5ccc(OC(F)(F)F)cc5)c4=O)cc3)c2)cc1OC [Example 7]
IC50 [4]: > 4 µM

Cc1ccc(-c2cn(CC3CCOCC3)cc(C(=O)Nc3ccc(-c4cc(-c5cc(C)nc(C)c5)cnc4N)nc3)c2=O)cc1 [Example 89]
IC50 [4]: > 4 µM

COc1cc(-c2cnc(N)c(-c3ccc(NC(=O)c4cn(CC5CCOCC5)cc(-c5ccc(C)cc5)c4=O)cn3)c2)c(OC)nn1 [Example 96]
IC50 [4]: > 4 µM

Cc1ccc(-c2cn(CC3CCOCC3)cc(C(=O)Nc3ccc(-c4cc(-c5cnn(CC6CCOCC6)c5)cnc4N)nn3)c2=O)cc1 [Example 102]
IC50 [4]: > 4 µM

COc1ccc(-c2cnc(N)c(-c3ccc(NC(=O)c4cn(CC5CCOCC5)cc(-c5ccc(C)cn5)c4=O)nn3)c2)cc1OC [Example 103]
IC50 [4]: > 4 µM

COc1cc(-c2cnc(N)c(-c3ccc(NC(=O)c4cn(CC5CCOCC5)cc(-c5ccc(C)cn5)c4=O)nn3)c2)ccc1OC[C@H]1COCCO1 [Example 105]
IC50 [4]: > 4 µM

COc1cc(-c2cnc(N)c(-c3ccc(NC(=O)c4cn(CC5CCOCC5)cc(-c5ccc(C)s5)c4=O)nn3)c2)ccc1OC[C@H]1COCCO1 [Example 106]
IC50 [4]: > 4 µM

Cc1ccc(-c2cn(CC3CCOCC3)cc(C(=O)Nc3ccc(-c4cc(-c5cnn(C[C@H]6COCCO6)c5)cnc4N)nn3)c2=O)cc1 [Example 108]
IC50 [4]: > 4 µM

Cc1ccc(-c2cn(CC3CCOCC3)cc(C(=O)Nc3ccc(-c4cc(-c5cnn(C6CCOCC6)c5)cnc4N)nn3)c2=O)cc1 [Example 109]
IC50 [4]: > 4 µM

COc1cc(-c2cnc(N)c(-c3ccc(NC(=O)c4cn(CC5CCOCC5)cc(-c5ccc(C)cc5)c4=O)nn3)c2)ccc1OCCN1CCOCC1 [Example 110, N-[6-(2-Amino-5-{3-methoxy-4-[2-(morpholin-4-yl)ethoxy]phenyl}pyridin-3-yl)pyridazin-3-yl]-5-(4-methylphenyl)-4-oxo-1-(tetrahydro-2H-pyran-4-ylmethyl)-1,4-dihydropyridine-3-carboxamide]
IC50 [4]: > 4 µM

COc1ccc(-c2cnc(N)c(-c3cnc(NC(=O)c4cn(CC5CCOCC5)cc(-c5ccc(C)cc5)c4=O)cn3)c2)cc1OC [Example 112, N-{5-[2-Amino-5-(3,4-dimethoxyphenyl)pyridin-3-yl]pyrazin-2-yl}-5-(4-methylphenyl)-4-oxo-1-(tetrahydro-2H-pyran-4-ylmethyl)-1,4-dihydropyridine-3-carboxamide]
IC50 [3]: > 4000 nM

COc1cc(-c2cnc(N)c(-c3ccc(NC(=O)c4cn(CC5CCOCC5)cc(-c5ccc(C)cn5)c4=O)cc3F)c2)ccc1OC[C@H]1COCCO1 [Example 124]
histological change in the retina [5]: No histological change in the retinal

COc1cc(-c2cnc(N)c(-c3ccc(NC(=O)c4cn(CC5CCOCC5)cc(-c5ccc(C)cc5)c4=O)cc3)c2)ccc1OC[C@H]1COCCO1.CS(=O)(=O)O [Example 128]
histological change in the retina [5]: No histological change in the retinal | antitumor effect (NIH-3T3-Axl #7; 3.1 mg/kg oral bid): almost completely inhibited tumor growth | antitumor effect (NIH-3T3-Axl #7; 12.5 mg/kg oral bid): distinct tumor regression effect | antitumor effect (NIH-3T3-Axl #7; 50 mg/kg oral bid): distinct tumor regression effect

COc1cc(-c2cnc(N)c(-c3ccc(NC(=O)c4cn(CC5(C#N)CCOCC5)cc(-c5ccc(F)cc5)c4=O)cc3)c2)ccc1OC[C@H]1COCCO1.CS(=O)(=O)O [Example 129]
histological change in the retina [5]: No histological change in the retinal
